Converted amounts (≈) assume the structure as drawn.
Tested on: human rhinovirus (HRV) serotypes HRV-2, -1A, 1B, -6, -14, -21, -22, -15, -25, -30, -50, -67, -89, -86 and -41
Test: standard plaque reduction assay, panel of human rhinovirus serotypes in HeLa (Ohio) cells
Assay type: cell-based
Settings: MIC = 50% plaque reduction, N serotypes: 15 (Ex. 1, 2, 4, 7, 8), 13 (Ex. 3), 2 (Ex. 5, 6); for MIC50 (Rhinovirus): concentration required to inhibit 50% of the tested serotypes; for MIC80 (Rhinovirus): concentration required to inhibit 80% of the tested serotypes
Experimental: The MIC values were determined by a standard plaque reduction assay as follows: HeLa (Ohio) cells in monolayers were infected at a concentration of virus to give approximately 80 plaques per monolayer in the virus control (no drug present). The compound to be tested was serially diluted and included in the agar-medium overlay and in some cases, during the adsorption period as well. The MIC was determined to be that concentration of compound which reduced the number of plaques by 50% with respect to the untreated virus control.
In the standard test procedure, the compounds were tested against a panel of fifteen human rhinovirus (HRV) serotypes, namely HRV-2, -1A, 1B, -6, -14, -21, -22, -15, -25, -30, -50, -67, -89, -86 and -41. The MIC value for each rhinovirus serotype was determined, and the efficacy of each compound was determined in terms of MIC50 and MIC80 values, which is the concentration of the compound required to inhibit 50% and 80%, respectively, of the tested serotypes.
The following Table gives the testing results with the compounds of the invention. The number of serotypes (N) is indicated after the MIC80 figure.

Compound | MIC50 (Rhinovirus) | MIC80 (Rhinovirus)
CCc1ccc(N2CCC(COc3ccc(-c4nnn(C)n4)cc3)CC2)nn1 [Ex. 1] | 13.2 mg/L (≈ 34.7 µM) | 0.281 mg/L (≈ 0.742 µM)
Cc1ccc(N2CCC(COc3ccc(-c4nnn(C)n4)cc3)CC2)nn1 [Ex. 2] | 13.3 mg/L (≈ 36.5 µM) | 0.141 mg/L (≈ 0.386 µM)
CCCc1ccc(N2CCC(Oc3ccc(-c4nnn(C)n4)cc3)CC2)nn1 [Ex. 3] | 15.7 mg/L (≈ 41.4 µM) | 1.82 mg/L (≈ 4.8 µM)
Cc1ccc(N2CCC(COc3c(C)cc(-c4nnn(C)n4)cc3C)CC2)nn1 [Ex. 4] | 20.1 mg/L (≈ 51.2 µM) | 1.48 mg/L (≈ 3.77 µM)
Cc1ccc(N2CCC(Oc3c(C)cc(-c4nnn(C)n4)cc3C)CC2)nn1 [Ex. 5] | 0.92 mg/L (≈ 2.42 µM) | 1.8 mg/L (≈ 4.74 µM)
Cc1ccc(N2CCC(Oc3ccc(-c4nnn(C)n4)cc3)CC2)nn1 [Ex. 6] | 0.27 mg/L (≈ 0.768 µM) | 0.52 mg/L (≈ 1.48 µM)
Cc1ccc(N2CCC(CCOc3ccc(-c4nnn(C)n4)cc3)CC2)nn1 [Ex. 7] | 6.64 mg/L (≈ 17.5 µM) | 0.04 mg/L (≈ 0.105 µM)
Cc1ccc(N2CCC(CCOc3c(C)cc(-c4nnn(C)n4)cc3C)CC2)nn1 [Ex. 8] | 16.8 mg/L (≈ 41.3 µM) | 0.66 mg/L (≈ 1.62 µM)

Source: US5242924A, “Tetrazolyl-(phenoxy and phenoxyalkyl)-piperidinylpyridazines as antiviral agents” (Sterling Winthrop Inc., priority 1992, dated 1993)
